Results published in paper PMC4246094, “Exchange Factor EFA6R Requires C-terminal Targeting to the Plasma Membrane to Promote Cytoskeletal Rearrangement through the Activation of ADP-ribosylation Factor 6 (ARF6)” (The Journal of Biological Chemistry, 2014).

target: T1, EFA6R (GFP-EFA6R), isoform B (Homo sapiens, UniProt Q9NYI0); experiment: competition pulldown: displacement from biotinylated PI-avidin beads by soluble diC8 lipid, immunoblot densitometry; details: concentration blocking 50% of binding to PI 4,5-P2 beads (in the methods PI 3,4-P2 beads); cell lysate, pH 7.4, 150 mM NaCl, 0.5% Nonidet P-40, 4 °C; PH domain; read-out: EC50 (the source's name)
T1 construct: gene PSD3; full-length isoform B, N-terminal GFP tag (pEGFPC2), transiently expressed in COS7 cells, lysate used; endogenous protein runs at 56 kDa
T1 sequence (Q9NYI0 1-513 isoform Q9NYI0-3 limits assumed): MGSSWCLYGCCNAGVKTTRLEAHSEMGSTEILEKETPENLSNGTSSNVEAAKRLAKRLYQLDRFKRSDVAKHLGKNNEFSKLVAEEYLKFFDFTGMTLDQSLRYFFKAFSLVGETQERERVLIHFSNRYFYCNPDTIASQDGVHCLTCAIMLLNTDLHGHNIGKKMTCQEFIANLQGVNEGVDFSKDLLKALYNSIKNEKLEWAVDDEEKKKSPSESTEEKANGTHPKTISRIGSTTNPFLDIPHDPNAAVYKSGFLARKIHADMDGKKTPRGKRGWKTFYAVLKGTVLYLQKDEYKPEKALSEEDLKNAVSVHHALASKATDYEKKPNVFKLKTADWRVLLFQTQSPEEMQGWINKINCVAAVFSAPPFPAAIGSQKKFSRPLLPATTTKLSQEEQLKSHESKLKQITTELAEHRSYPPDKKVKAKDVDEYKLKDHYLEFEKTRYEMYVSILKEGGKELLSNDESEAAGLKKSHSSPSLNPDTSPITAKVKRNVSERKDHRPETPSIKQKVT

IC50 | Compound
1.1 µM | CCCCCCCC(=O)OC[C@H](COP(=O)(O)O[C@@H]1[C@H](O)[C@H](O)[C@@H](OP(=O)(O)O)[C@H](OP(=O)(O)O)[C@H]1O)OC(=O)CCCCCCC [PI 4,5-P2]
> 10 µM | CCCCCCCC(=O)OC[C@H](COP(=O)(O)O[C@H]1[C@H](O)[C@@H](OP(=O)(O)O)[C@H](OP(=O)(O)O)[C@@H](OP(=O)(O)O)[C@H]1O)OC(=O)CCCCCCC [PI 3,4,5-trisphosphate]
> 10 µM | CCCCCCCC(=O)OC[C@H](COP(=O)(O)O[C@@H]1[C@H](O)[C@H](OP(=O)(O)O)[C@@H](O)[C@H](O)[C@H]1O)OC(=O)CCCCCCC [PI 3-phosphate]
> 10 µM | CCCCCCCC(=O)OC[C@H](COP(=O)(O)O[C@H]1[C@H](O)[C@@H](O)[C@H](OP(=O)(O)O)[C@@H](OP(=O)(O)O)[C@H]1O)OC(=O)CCCCCCC [PI 3,4-P2]
